Measured values as given in a melting point compilation (Tetko et al.; mined from patent text by program, amines drawn as free bases though some values may be those of a salt).

SMILES | melting point [°C]
O=C(O)[C@H]1C=C[C@H](c2ccccc2)n2c(=O)n(CCS)c(=O)n21 (relative stereo) | 153 to 154
c1ccc(NC2CCc3cccnc3C2)cc1 (stereo not drawn) | 102 to 103
COc1ccc(-c2cc(CO)c(=O)n(CCCc3ccc(F)cc3)n2)cc1F | 130 to 133
O=C(OCCBr)N1CCCSC1=C[N+](=O)[O-] | 79 to 81
CCc1ccc2nn(-c3cc(C)ccc3O)nc2c1 | 91 to 91.5
O=S1(=O)NCC(O)c2ccsc21 (stereo not drawn) | 138 to 140
COCCOC(=O)Nc1cccc(C)c1COc1cccn2c(C=O)c(C)nc12 | 119 to 120
Clc1ccc2[nH]c(-c3ccccc3)c(CCN3CCCCC3)c2c1 | 153 to 154
Cc1cccc(C)c1NC(=O)CCSc1cc(C(C)(C)C)c(O)c(C(C)(C)C)c1 | 142 to 144
COCCN(C)c1nnc(-c2ccc(-c3ccccc3)nc2)n1-c1cccc2nonc12 | 133 to 134
Cc1cc2oc(=O)c3c(c2cc1C)CCN(CC(C)N(C)C)C3 (stereo not drawn) | 105 to 107
OCC=C(c1ccc(I)cc1)c1ccc(I)cc1 | 83 to 85
O=C(Nc1nc(C(F)(F)F)c(Br)s1)c1ccc(Cl)c(Cl)c1 | 191 to 192
N[C@@H](Cc1ccccc1)C(=O)NCC(=O)Nc1ccc([N+](=O)[O-])cc1C(=O)c1ccccc1 | 144 to 146
CC(Cl)(Cl)C(NC(=O)c1cccc(Cl)c1)NC(=NC#N)Nc1ccc(F)nc1 (stereo not drawn) | 124 to 125
Cc1ccc(Nc2nc(-c3ccc(-c4ccccn4)s3)cs2)nc1 | 197 to 199
CC(=O)NNc1ccc(NCc2ccccc2)cc1 | 118 to 120
O=S(=O)(CC(O)(CBr)c1ccccc1)c1ccccc1 (stereo not drawn) | 91
C=C/C=C/CCOC(=O)c1cc(CBr)cc(CBr)c1 | 50 to 52
Cc1ccc(-c2cn(-c3ccc4c(c3)c3ccccc3n4C)c(-c3ccc(C)s3)n2)s1 | 248 to 255
CO[C@](C)(c1cc(F)cc(OCc2ccc3ccccc3c2)c1)[C@H](C)O (racemic) | 62 to 63
Cc1oc(-c2ccccc2)nc1CCOc1ccc(COc2ccccc2CC(=O)O)cn1 | 159 to 160
CCOC(=O)c1oc(-c2ccc(Cl)cc2)nc1C | 80 to 81
COC(=O)C1=C(c2ccccc2)NC(C)=C(C(=O)OC(C)C)C1c1cccc([N+](=O)[O-])c1 (stereo not drawn) | 184 to 186
CCc1cc(-c2cccnc2)nn1-c1ccc(NC(=O)c2cccnc2)cc1 | 188 to 190
COC(=O)c1cccc(C(=O)NC2N=C(c3ccccc3F)c3ccccc3N(CC(=O)N3CC4CCC(CC4)C3)C2=O)c1 (racemic) | 166 to 177

SMILES | melting point [°C]
Cc1oc2ccccc2c1OC(C)(C)C#N | 53 to 55
CN(O)C(=O)NCCCCCOc1ccc(-c2ccccc2)cc1 | 153 to 154
CCCOc1ccc(C=CCCCCC(=O)O)cc1 | 52 to 53
CO[C@@]1(C)[C@@H](NC(=O)C(F)(F)F)CC(OC(=O)c2ccc([N+](=O)[O-])cc2)O[C@H]1C (stereo partly drawn) | 180 to 181
COC(=O)c1nc(NC(C)=O)sc1-c1ccc(SC)cc1 | 253 to 254
Cc1c(C)c2cc(CCN3CCN(c4n[nH]c5ccccc45)CC3)ccc2[nH]c1=O | 266 to 268
Cc1cccc(NC(=O)CN2CCN(c3ccccc3)CC2)c1 | 120 to 121
O=C1C=CC(O)(c2cnc3ccccc3c2)C=C1 | 183 to 184
COc1ccc([N+](=O)[O-])c(OCC(N)=O)c1 | 185 to 187
NC(=O)C1CCC(=O)N1CC#CCN1CCCCC1 (stereo not drawn) | 143 to 145
COc1cc2cc([N+](=O)[O-])ccc2c([N+](=O)[O-])c1O | 239 to 242
Nc1cc(SC(F)(F)F)cc(Br)c1N | 60 to 61
COc1ccc(C2(C#N)C3CC4CC(C3)CC2C4)cc1 (stereo not drawn) | 165 to 166
COC(=O)c1sc2nc(-c3ccccc3)cnc2c1N | 197 to 198
COc1ccc(C(C)(C)C)cc1NC(=O)Nc1ccc(C)cc1N | 165 to 166
Cc1nnsc1NC(=O)Nc1ccc(-n2nc(C(F)(F)F)cc2C2CC2)cc1 | 124 to 128
C=C(c1ccccc1)c1cccc(C(C)C(=O)OC)c1 (stereo not drawn) | 69 to 71
O=C1NC2(NC1=O)Oc1ccccc1O2 | 202
Cc1cc2ccccc2cc1C=O | 119
COc1cc(OCC(=O)O)c(C)cc1SCc1ccc(-c2ccc(Cl)c(Cl)c2)cc1 | 161 to 162
COCCOc1cc(Oc2ccc(C(F)(F)F)cn2)ccc1CCCOc1cc(CCC(=O)O)n(C)n1 | 110
CNC(=S)n1nc(N=CN(C)C)nc1N | 184 to 188
N#CC(Br)c1ccccn1 (stereo not drawn) | 62 to 64
COC1=C(OC)C(=O)C2=C(CCC(CCO)CC2)C1=O | 63 to 64
CC(C)(C)Oc1ccc(CCC(=O)NCCC(=O)O)cc1 | 70 to 72

The next lines start with the values.

melting point [°C] | SMILES
222 | CC12CC(=O)NN=C1c1ccc(N)cc1C2 (stereo not drawn)
174 to 176 | Cc1ccc(-n2nc(C#N)cc2-c2ccc(S(C)(=O)=O)cc2)cc1Cl
152 to 154 | COc1ccc(-c2ccc(C(C)=O)cc2N)cc1
252 to 253 | CCOC(=O)c1cn(-c2nc3ccccc3[nH]2)cn1
74 to 75 | CCCN(C(C)C)S(=O)(=O)NC(=O)c1cc(-n2c(=O)cc(C(F)(F)F)n(C)c2=S)c(F)cc1Cl
110 to 112 | N#Cc1ccc(CCCCC2CC(c3cccnc3)=CC(=O)O2)cc1 (stereo not drawn)
114 to 116 | Cc1nc(C(=O)NCCO[N+](=O)[O-])c(C)s1
156 to 158 | CCc1cc2c(c(Sc3ccccc3)cc(=O)n2Cc2ccc(-c3ccccc3-c3nnn(C(c4ccccc4)(c4ccccc4)c4ccccc4)n3)cc2)c(CC)n1
85 to 94 | CSC[C@H](C)NC(=O)c1c(I)cccc1C(=O)Nc1ccc(Cc2cc(C(F)(F)F)cc(C(F)(F)F)c2)cc1C
75 to 77 | CCCCOC1OC(CO)C(O)C(O)(N(CC2CCCCC2)C(=O)N(CCCl)N=O)C1O (stereo not drawn)
94 to 99 | CCc1ccc(-c2ccc(NC(=O)OC(C)(C)C)c([N+](=O)[O-])c2)cc1
119 to 121 | COc1cc(Nc2c(C#N)cnc3cc(/C=C/CCN(C)C)c(OC)cc23)c(Cl)cc1Cl
123 to 128 | Cc1cccc(-c2ccc(S(=O)(=O)N3c4ccccc4CC3C(=O)O)cc2)c1 (stereo not drawn)
138 to 139 | O=C(O)CC1CCCCc2c1c1cc(F)ccc1n2Cc1ccc(Cl)cc1 (stereo not drawn)
170 to 174 | CCOC(=O)Nc1nc(C(=O)C(=O)OC)ns1
125 | COc1ccc(CCn2cnc3oc(C)c(C)c3c2=N)cc1
89 to 90 | COC(=O)[C@@H]1C[C@H](OC(=O)c2ccccc2)CN1C(=O)OC(C)(C)C
70.5 to 73 | CCOC(=O)Cc1ccc(Oc2ccc([N+](=O)[O-])cc2)cc1
108 to 112 | CN1C(=O)CCCC1(O)C=Cc1ccccc1 (stereo not drawn)
189 to 191 | CC[C@@H]1CN(c2c(F)cc3c(=O)c(C(=O)O)cn4c3c2OC[C@@H]4C)C[C@H]1N
126 to 128 | COC(=O)c1sc2ccc(OCc3cccnc3)cc2c1Cl
102 | COC1(C)CCc2cc(OC(=O)c3ccccc3)c(C)c(C)c2O1 (stereo not drawn)
182 to 183 | COc1cccc2c3c(c(C)nc12)CCN3c1ccccc1C
144 to 147 | CN(C)CCOc1ccc(Cl)c(C(=O)NCC23CC4CC(CC(C4)C2)C3)c1
233 to 234 | COc1ccc([C@@H]2O[C@@H](CC(=O)O)C(=O)N(CC(C)(C)C)c3ccc(Cl)cc32)c(OC)c1
147 to 148 | COc1ccc(COc2cccc(C(=O)Nc3ccc(C#N)cc3)c2)cc1

melting point [°C] | SMILES
118 | CCCCCS(=O)(=O)NC(=O)/C(=C/c1ccc(OCCOC)cc1Oc1ncc(Cl)cc1Cl)CC
115 to 117 | CCCOc1ccccc1-c1nc2sccc2c(=O)[nH]1
174 to 181 | CC(C)S(=O)(=O)C1C(=O)N(Cc2ccccc2F)C(=O)c2ccccc21 (stereo not drawn)
150 | COC(=O)c1c(-c2ccccc2)oc2c(CCl)cccc2c1=O
85 to 86 | CCC(=O)NCC1CCN(CCOc2ccccc2)CC1
167 to 168 | COc1cc(OC)c(-c2cccs2)cc1/C=C/C(=O)c1ccc(S(=O)(=O)NCc2cccnc2)cc1
76 to 82 | OCCOc1ccc(O)c(Cl)c1
220 to 221 | CCOC(=O)/C=C/C1N(C(C)C)C(=O)c2ccccc2C1(O)c1ccc(F)cc1 (stereo not drawn)
160 to 162 | Cc1cc(C(O)(CNC(=O)c2ccc(Cl)cc2)C(F)(F)F)ccc1NC(=O)OC(C)(C)C (stereo not drawn)
125 to 129 | Oc1ccc(-c2nnc(CCCCCCc3ccccc3)o2)cc1
112 to 113 | CC1CC(NC=O)=NN1c1ccc(Cl)cc1 (stereo not drawn)
201 | COc1ccc2ccc(NC(=O)c3ccco3)nc2n1
54 to 57 | COC1(c2cc(F)cc(Sc3ccc(C(F)(F)c4ccc(F)cc4)cc3)c2)CCOCC1
121 to 123 | Cc1cc(C)nc(N(C(=O)Cl)c2cc(Cl)ccc2Cl)n1
180 to 181 | CC1(c2ccccc2)C(=O)Nc2ccc(Cl)cc21 (stereo not drawn)
100 | CCOc1ccc2[nH]c(=O)n(-c3ccc(C(C)C)cc3)c2c1
112 to 115 | CC(C)CCCC(C)CCOc1cc(CO)c(-c2ccccc2)cc1CO (stereo not drawn)
184 to 187 | Cc1nc(-n2cc(-c3ccccn3)nn2)sc1C(=O)NCc1ccccc1
54 to 55 | CCCCCC(=O)NCc1ccco1
125 | COc1ccc(-c2nn(CC(C)C)c(=O)cc2-c2ccc(OC)c(F)c2)cc1
182 to 183 | CCCCC(=O)Nc1cccc2c1C1(COc3cc4c(cc31)OCCO4)C(=O)N2C (stereo not drawn)
174 to 177 | N#CNC(=Nc1ccncc1)NCCOc1ccc(Cl)cc1
167 to 168 | COc1nc2oc(-c3ccccc3)nc2cc1C
56 | CCCCCCCCCCCCCCCCOCC(CO)OC (stereo not drawn)
260 | COC1=Cc2c(n(C)c(=O)n2C)CC1=NNC(=N)N
202 | CC1C(=O)N(c2ccc(S(N)(=O)=O)cc2Cl)CN1c1ccccc1 (stereo not drawn)
